Source: US20250120970A1, “PHARMACEUTICAL COMPOSITION INCLUDING PHTHALAZINONE DERIVATIVE FOR CO-ADMINISTRATION WITH ANTICANCER DRUG” (priority 2022, published 2025)
Counter-ions that a name gives are not always drawn. Each block holds one compound with its values, some of them ahead of it.

What was measured:
[1] = tested on: SNU-484; assay: MTT assay, irinotecan with or without hydrochloride compound of Formula 1; type: cell-based; conditions: Homo sapiens, 120 h, 5 days, irinotecan alone or with 1 μM hydrochloride compound of Formula 1
[2] = tested on: SNU-216; assay: as above; type: cell-based; conditions: Homo sapiens, 120 h, 5 days, irinotecan alone or with 1 μM hydrochloride compound of Formula 1
[3] = tested on: SNU-668; assay: as above; type: cell-based; conditions: Homo sapiens, SNU668, 120 h, 5 days, irinotecan alone or with 1 μM hydrochloride compound of Formula 1
[4] = tested on: AGS; assay: as above; type: cell-based; conditions: Homo sapiens, 120 h, 5 days, irinotecan alone or with 1 μM hydrochloride compound of Formula 1
[5] = tested on: SNU-638; assay: as above; type: cell-based; conditions: Homo sapiens, 120 h, 5 days, irinotecan alone or with 1 μM hydrochloride compound of Formula 1
[6] = tested on: five human-derived gastric cancer cell lines (AGS, SNU-668, SNU-216, SNU-484, and SNU-638); assay: MTT assay, irinotecan experiment, summary over the five cell lines; conditions: 5 days, irinotecan with or without 1 μM hydrochloride compound of Formula 1
[7] = tested on: AGS; assay: MTT assay, oxaliplatin with or without hydrochloride compound of Formula 1; type: cell-based, human; conditions: 5 days, oxaliplatin alone or with 1 μM hydrochloride compound of Formula 1
Description: (§1) Oxaliplatin (M.W. 397.29) was obtained from Sigma Aldrich.

[8] = tested on: SNU-484; assay: as above; type: cell-based, human; conditions: 5 days, oxaliplatin alone or with 1 μM hydrochloride compound of Formula 1
Description: as §1

[9] = tested on: SNU-638; assay: as above; type: cell-based, human; conditions: 5 days, oxaliplatin alone or with 1 μM hydrochloride compound of Formula 1
Description: as §1

[10] = tested on: SNU-668; assay: as above; type: cell-based, human; conditions: 5 days, oxaliplatin alone or with 1 μM hydrochloride compound of Formula 1
Description: as §1

[11] = tested on: five human-derived gastric cancer cell lines (AGS, SNU-668, SNU-216, SNU-484, and SNU-638); assay: MTT assay, oxaliplatin experiment, summary over the cell lines; type: cell-based; conditions: 5 days, oxaliplatin with or without 1 μM hydrochloride compound of Formula 1
Description: as §1

[12] = tested on: MKN45 human gastric cancer xenograft; assay: subcutaneous MKN45 human gastric cancer xenograft model, tumor volume; conditions: for Tumor volume (Mean ± SEM): Formula 1 HCl 2 mg/kg p.o. QD, irinotecan 5 mg/kg i.v. QW

IC50 [1]: 789 nM
IC50 [2]: 2010 nM
IC50 [3]: 4300 nM
IC50 [4]: 367 nM
IC50 [5]: 657 nM
SMILES: CCc1c2c(nc3ccc(OC(=O)N4CCC(N5CCCCC5)CC4)cc13)-c1cc3c(c(=O)n1C2)COC(=O)[C@]3(O)CC [Comparative Example 1, Irinotecan hydrochloride]
cell death (cell viability, FIG. 1) [6]: exhibited an effect of cell death

SMILES: O=C1[O][Pt-2]2([NH2+]C3CCCC[C@H]3[NH2+]2)[O]C1=O (stereo partly drawn) [Comparative Example 2, Oxaliplatin]
IC50 [7]: 2380 nM
IC50 [8]: 10400 nM
IC50 [9]: 30300 nM
IC50 [10]: 11200 nM
cell death (cell viability, FIG. 2) [11]: exhibited an effect of cell death

SMILES: O=C(c1cc(Cc2n[nH]c(=O)c3ccccc23)ccc1F)N1CC(CNC2CC2)C1 [Comparative Example 4, 4-[3-(3-[(cyclopropylamino)methyl]azetidine-1-carbonyl)-4-fluorobenzyl]phthalazine-1 (2H)-on]
Tumor volume (Mean ± SEM) ([12]; 0 day (grouping date), MKN45 xenograft mice): 156.60 mm^3
Tumor volume (Mean ± SEM) ([12]; 3rd day, MKN45 xenograft mice): 190.75 mm^3
Tumor volume (Mean ± SEM) ([12]; 7th day, MKN45 xenograft mice): 272.69 mm^3
Tumor volume (Mean ± SEM) ([12]; 10th day, MKN45 xenograft mice): 359.75 mm^3
Tumor volume (Mean ± SEM) ([12]; 14th day, MKN45 xenograft mice): 461.91 mm^3
Tumor volume (Mean ± SEM) ([12]; 17th day, MKN45 xenograft mice): 588.26 mm^3
Tumor growth inhibition (TGI) ([12]; 21st day, Formula 1 HCl 2 mg/kg QD, irinotecan 5 mg/kg QW): 19.69%
Tumor size on 21st day (Mean ± SEM) ([12]; 21st day, MKN45 xenograft mice, Formula 1 HCl 2 mg/kg QD, irinotecan 5 mg/kg QW): 727.36 ± 69.46 mm^3
Tumor volume (Mean ± SEM) ([12]; 21st day, MKN45 xenograft mice): 727.36 mm^3
T/C ([12]; 21st day, treatment vs vehicle control tumor volume): 80.31%
